# Data reported in the supplement of paper PMC10307832.
# Columns and labels:
# Assay in all cases: relative viability (nuclei count vs DMSO), 5 days (fraction); higher = more cells survive
# [1] = compound: CCOC(=O)CCNc1cc(N2CCc3ccccc3CC2)nc(-c2ccccn2)n1 [GSK-J4] + Cc1cc(Nc2cc(N3CCN(C)CC3)nc(Sc3ccc(NC(=O)C4CC4)cc3)n2)n[nH]1 [Tozasertib] (partner 0.1 µM)
# Procedure, shortened: (§1)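 A single step with final 0.05% Triton X-100, 1% formaldehyde and 1 ug/ml Hoechst fixed the cells and stained nuclei 5 days after treatment. Lung cancer cell lines in 1536-well plates had been treated by pin tool the day after seeding with one drug alone or a fixed anchor-drug dose plus five library-drug doses (not always all listed) in √10 steps, and nuclei were counted on 4× images. Relative viability is the ratio of nuclei in treated wells to nuclei in vehicle wells, taken as the median of duplicate plates.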
# [2] = compound: CN1CCC(CC1)OC2=CC(=C(C=C2)NC3=NC=C4C(=N3)N(C(=O)N4C)C5CCCC5)OC [AZ3146] + CC1(C)CCC(c2ccc(Cl)cc2)=C(CN2CCN(c3ccc(C(=O)NS(=O)(=O)c4ccc(N[C@H](CCN5CCOCC5)CSc5ccccc5)c(S(=O)(=O)C(F)(F)F)c4)cc3)CC2)C1 [Navitoclax] (partner 0.5 µM)
# Procedure, shortened: as §1
# [3] = compound: CN1CCC(CC1)OC2=CC(=C(C=C2)NC3=NC=C4C(=N3)N(C(=O)N4C)C5CCCC5)OC [AZ3146] + C[C@@H](Oc1cc(-c2cnn(C3CCNCC3)c2)cnc1N)c1c(Cl)ccc(F)c1Cl [Crizotinib] (partner 1 µM)
# Procedure, shortened: as §1
# [4] = compound: CN1CCC(CC1)OC2=CC(=C(C=C2)NC3=NC=C4C(=N3)N(C(=O)N4C)C5CCCC5)OC [AZ3146] + Nc1nc2[nH]cc(CCc3ccc(C(=O)N[C@@H](CCC(=O)O)C(=O)O)cc3)c2c(=O)[nH]1 [Pemetrexed] (partner 0.2 µM)
# Procedure, shortened: as §1
Cell Line,relative viability ([1]; first compound 0.5 µM),relative viability ([1]; first compound 1.581 µM),relative viability ([1]; first compound 5 µM),relative viability ([1]; first compound 15.81 µM),relative viability ([1]; first compound 50 µM),relative viability ([2]; first compound 0.08 µM),relative viability ([2]; first compound 0.253 µM),relative viability ([2]; first compound 0.8 µM),relative viability ([2]; first compound 2.53 µM),relative viability ([2]; first compound 8 µM),relative viability ([3]; first compound 0.08 µM),relative viability ([3]; first compound 0.253 µM),relative viability ([3]; first compound 0.8 µM),relative viability ([3]; first compound 2.53 µM),relative viability ([3]; first compound 8 µM),relative viability ([4]; first compound 0.08 µM),relative viability ([4]; first compound 0.253 µM),relative viability ([4]; first compound 0.8 µM),relative viability ([4]; first compound 2.53 µM),relative viability ([4]; first compound 8 µM)
NCI-H1975,0.721,0.716,0.539,0.659,0.798,1.19,1.18,1.14,1.17,1.01,0.862,1.07,0.834,0.406,0.299,0.312,0.311,0.294,0.295,0.244
LU99A,0.233,0.276,–,0.281,0.253,0.698,0.764,1.01,0.868,0.834,0.502,0.584,0.555,0.555,0.452,–,0.188,0.181,0.165,0.186
NCI-H1755,0.585,0.582,0.553,0.531,0.581,0.992,1,0.948,1.03,1.01,0.868,0.888,0.855,0.928,0.816,0.666,0.532,0.463,0.509,0.496
LOU-NH91,0.654,0.502,0.438,0.619,0.644,0.685,0.609,0.76,0.697,0.7,0.749,0.699,0.746,0.71,0.75,0.327,0.448,0.362,0.368,0.411
SW 1573,0.206,0.129,0.164,0.199,0.177,0.997,1.1,1.04,0.93,0.895,0.758,0.843,0.892,0.891,0.531,0.815,0.844,0.861,0.82,0.228
CAL-12T,0.304,0.324,0.336,0.264,0.357,1.21,1.28,1.24,1.32,1.17,0.507,0.72,0.595,0.733,0.247,1.1,1.15,1.29,1.33,1.13
NCI-H1734,0.266,0.251,0.26,0.246,0.259,0.821,0.828,0.831,0.847,0.846,0.678,0.752,0.655,0.697,0.598,0.414,0.433,0.388,0.428,0.413
LCLC-97TM1,0.322,0.187,0.226,0.146,0.165,–,–,0.541,0.361,0.544,–,–,0.485,0.352,0.304,0.142,0.184,0.233,0.192,0.163
BEN,0.514,0.41,0.609,0.375,0.492,–,0.0708,0.0628,0.0467,0.176,–,0.869,0.97,0.822,0.829,–,0.641,0.651,0.75,0.8
COR-L23,0.171,0.211,–,0.158,0.136,1.05,1.08,0.984,1.03,0.923,0.506,0.649,0.622,0.502,0.407,0.195,0.196,0.215,0.208,0.195
NCI-H2009,0.69,0.663,0.681,0.717,0.306,1.02,1.27,1.2,1.25,1.03,0.978,1.12,1.04,0.87,0.885,1.05,0.996,1.04,0.989,1.03
ChaGo-K-1,0.221,0.213,0.236,0.236,0.21,1,1,0.897,0.996,0.672,1,1.26,0.951,0.593,0.328,0.562,0.248,0.254,0.258,0.248
NCI-H2023,0.384,–,0.335,0.371,0.222,0.887,1.08,1.06,1.04,0.652,0.592,0.636,0.485,0.407,0.449,0.207,0.238,0.226,0.216,0.129
NCI-H2405,0.743,0.703,–,0.719,0.671,0.836,–,1,0.859,1.08,0.808,0.842,0.733,0.899,0.798,1.12,1.06,1.1,1.11,1.04
HCC-44,0.809,0.803,–,0.646,0.688,0.877,1.04,0.985,1.01,1.01,0.779,0.791,0.724,0.796,0.668,0.601,0.654,0.687,0.698,0.654
EPLC-272H,0.385,0.174,0.443,0.146,0.172,0.985,0.98,1.05,1.37,1.19,0.78,0.843,1.02,1.14,0.975,0.366,0.369,0.37,0.341,0.396

Cell Line,relative viability ([1]; first compound 0.5 µM),relative viability ([1]; first compound 1.581 µM),relative viability ([1]; first compound 5 µM),relative viability ([1]; first compound 15.81 µM),relative viability ([1]; first compound 50 µM),relative viability ([2]; first compound 0.08 µM),relative viability ([2]; first compound 0.253 µM),relative viability ([2]; first compound 0.8 µM),relative viability ([2]; first compound 2.53 µM),relative viability ([2]; first compound 8 µM),relative viability ([3]; first compound 0.08 µM),relative viability ([3]; first compound 0.253 µM),relative viability ([3]; first compound 0.8 µM),relative viability ([3]; first compound 2.53 µM),relative viability ([3]; first compound 8 µM),relative viability ([4]; first compound 0.08 µM),relative viability ([4]; first compound 0.253 µM),relative viability ([4]; first compound 0.8 µM),relative viability ([4]; first compound 2.53 µM),relative viability ([4]; first compound 8 µM)
NCI-H322M,0.457,0.393,0.484,0.442,0.507,1.24,1.12,1.1,1.24,1.23,0.683,0.876,0.9,0.763,0.6,0.59,0.585,0.609,0.574,0.642
SK-MES-1,0.821,0.854,0.736,0.856,0.524,1.32,1.22,1.3,1.35,1.35,0.936,1.03,0.97,1.12,1.05,1.02,0.976,0.965,0.997,0.792
NCI-H2170,0.599,0.544,0.692,0.759,0.512,0.705,0.528,0.632,0.576,0.645,1.04,1.07,1.22,1.11,1.03,0.269,0.248,0.26,0.268,0.281
H3255,0.519,0.622,0.539,0.531,0.508,0.527,0.35,0.582,0.628,0.467,0.841,0.884,0.886,1.03,0.442,0.597,0.536,0.542,0.6,0.574
EKVX,0.379,0.213,0.406,0.346,0.334,0.817,0.907,0.898,1.02,1.16,0.957,1.12,1.06,1.1,0.365,0.441,0.424,0.365,0.389,0.422
NCI-H1993,0.51,0.562,0.646,0.503,0.497,0.972,0.935,0.993,0.929,0.898,0.876,0.847,0.813,0.879,0.84,0.567,0.542,0.539,0.619,0.561
NCI-H460,0.41,0.387,0.344,0.294,0.283,1.1,1.21,1.14,1.08,0.298,0.729,0.844,0.664,0.11,0.0243,0.0552,0.0628,0.0797,0.06,0.0682
NCI-H1437,0.391,0.372,0.384,0.377,0.293,1.02,1.09,1.07,1.13,1.14,0.875,0.906,0.853,1.02,0.863,0.283,0.327,0.3,0.346,0.294
NCI-H2347,0.573,0.452,0.534,–,0.476,0.76,0.763,0.594,0.88,0.833,0.522,0.677,0.822,0.647,0.699,0.42,0.418,0.458,0.404,0.416
NCI-H1944,0.257,0.238,0.248,0.243,0.255,–,1.02,1,1.13,1.15,–,0.977,1.09,1.13,1.1,0.484,0.616,0.636,0.646,0.705
NCI-H2126,0.793,0.676,0.794,0.839,0.733,0.8,0.843,0.896,0.861,0.849,1.05,0.992,1.06,1.07,0.989,0.613,0.662,0.618,0.677,0.696
HCC-78,0.426,0.401,0.494,0.379,0.348,–,0.795,0.718,0.899,0.736,–,0.326,0.329,0.387,0.361,–,1,0.911,0.91,0.895
PC-14,0.547,0.542,–,0.564,0.665,0.959,1.02,1.12,1.11,0.898,0.898,0.98,0.975,1,0.828,0.138,0.131,0.142,0.119,0.0971
NCI-H520,0.439,–,0.497,0.39,0.425,1.18,1.06,1.04,1.1,0.981,0.691,0.959,0.613,0.486,0.406,0.843,0.735,0.647,0.543,0.422
LXF-289,0.198,0.154,0.132,0.166,0.204,0.94,1.03,0.883,0.943,0.926,0.848,0.886,0.795,0.781,0.444,0.953,0.85,0.912,0.924,0.799
NCI-H441,0.595,0.634,0.526,0.559,0.494,0.416,0.576,0.53,0.547,0.683,0.646,0.658,0.774,0.773,0.658,0.256,0.251,0.251,0.266,0.274
